Like-named read-outs stand apart in the source and are kept apart here.
Test system: HeLa cells
Assay: HeLa cell 24 hr ploidy assay (DNA content)
Format: cell-based
Conditions: Homo sapiens, HeLa, 4N ploidy, average, read-out: 24h_4NPloidy EC50_IP (uM Avg)
Description: HeLa cell 24 hr ploidy assay protocol
The purpose of this assay is to evaluate the ability of selected individual compounds to induce Deoxyribonucleic acid (DNA) content (ploidy) in cells through failed cell division. Cell cycle analysis is a rapid and efficient way to evaluate the status of DNA content (ploidy) of a given cell. HeLa cells (1×10^4 HeLa cells/well) in 100 ul of media (MEM+10% FBS) were plated in 96-well plates (Packard View) and cultured for 24 hrs at 37° C. maintained in a 5% CO2 atmosphere. […] The compounds were serially diluted in DMSO (0.25% final concentration). The cells were fixed (3.7% Formaldehyde and 1% glutaraldehyde) and permeabilized (1×PBS with 1% BSA and 0.2% Triton X-100) in preparation for nuclear staining. The well plates were stained for 45 minutes at RT in the dark using Hoechest 33342 nuclear stain at 0.5 ug.ml (Stock of 10 mg/ml, Invitrogen, CA, Cat #H3570). The nuclear stain was removed by aspiration and the cells were washed with wash buffer. A Cellomics Array Scan Vti plate reader was used to acquire the DNA ploidy data of the cells using Cell Cycle bioapplication. Numbers for each of “valid cell count/well”, “% of 4N cells” and “% of >4Ncells” were calculated with the assistance of an Activity Base 5.1ca software and dose curves were generated using an XLFit software. With XLFit, final EC50 IP and EC50 transit values, as well as the Max and Min, were calculated for each curve.

| Structure (SMILES) | EC50 [µM] | EC50 (HeLa cells) [µM] |
| --- | --- | --- |
| COc1cnc2c(Oc3ccc(Nc4nnc(-c5cccc(C)n5)c5ccccc45)cc3)ccnc2c1 [compound 111] | 0.109 | – |
| COc1cc2nccc(Oc3ccc(Nc4nnc(-c5cccc(CO)n5)c5ccccc45)cc3)c2cc1OC [compound 112] | 0.02 | – |
| COc1cc2nccc(Oc3ccc(Nc4nnc(-c5cccc(COC(C)=O)n5)c5ccccc45)cc3)c2cc1OC [compound 113] | 0.048 | – |
| COc1cnc2c(Oc3ccc(Nc4nnc(-c5cccc(CO)n5)c5ccccc45)cc3)ccnc2c1 [compound 114] | 0.39 | – |
| Fc1cc(Nc2nnc(-c3ccccc3)c3ccccc23)ccc1Oc1ccnc2ccccc12 [compound 115] | 0.116 | – |
| COc1cnc2c(Oc3ccc(Nc4nnc(-c5cc(C)ccn5)c5ccccc45)cc3)ccnc2c1 [compound 116, N-(4-((7-(methyloxy)-1,5-naphthyridin-4-yl)oxy)phenyl)-4-(4-methyl-2-pyridinyl)-1-phthalazinamine] | 0.179 | – |
| COc1cc2nccc(Oc3ccc(Nc4nnc(-c5cc(C)ccn5)c5ccccc45)cc3)c2cc1OC [compound 117] | 0.066 | – |
| COc1ccc2c(Oc3ccc(Nc4nnc(-c5cc(C)ccn5)c5ccccc45)cc3)ccnc2c1 [compound 118] | 0.11 | – |
| COc1ccccc1-c1nnc(Nc2ccc(Oc3ccnc4cc(C#N)ccc34)cc2)c2ccccc12 [compound 119] | > 1.2 | – |
| COCc1cccc(-c2nnc(Nc3ccc(Oc4ccnc5cc(OC)cnc45)cc3)c3ccccc23)n1 [compound 120] | 0.305 | – |
| COc1cc2nccc(Oc3ccc(Nc4nnc(-c5cc(C)ccn5)c5ccccc45)cc3)c2cn1 [compound 121] | 0.132 | – |
| Cc1ccc(-c2nnc(Nc3ccc(Oc4ccnc5cc(C#N)ccc45)cc3)c3ccccc23)nc1 [compound 122] | 0.053 | – |
| COc1cc2ncnc(Oc3ccc(Nc4nnc(-c5cc(C)ccn5)c5ccccc45)cc3)c2cc1OC [compound 123] | 0.077 | – |
| COc1cc2nccc(Nc3ccc(Nc4nnc(-c5ccccc5)c5ccccc45)cc3)c2cn1 [compound 124, N-(7-(methyloxy)-1,6-naphthyridin-4-yl)-N′-(4-phenyl-1-phthalazinyl)-1,4-benzenediamine] | 0.025 | – |
| COc1cnc2c(Oc3ccc(Nc4nnc(-c5ccc(C)cn5)c5ccccc45)cc3)ccnc2c1 [compound 125] | 0.059 | – |
| COc1cnc2c(Oc3ccc(Cc4nnc(-c5ccc(C)cc5)c5ccccc45)cc3)ccnc2c1 [compound 126, 3-(methyloxy)-8-((4-((4-(4-methylphenyl)-1-phthalazinyl)methyl)phenyl)oxy)-1,5-naphthyridine] | > 1.2 | – |
| COc1cc2nccc(Oc3ccc(Nc4nnc(-c5cccc(C)n5)c5ccccc45)cn3)c2cn1 [compound 127] | > 1.2 | – |
| COc1cnc2c(Oc3ccc(Nc4nnc(-c5cccc(C)n5)c5ccccc45)cn3)ccnc2c1 [compound 128, N-(6-((7-(methyloxy)-1,5-naphthyridin-4-yl)oxy)-3-pyridinyl)-4-(6-methyl-2-pyridinyl)-1-phthalazinamine] | > 1.2 | – |
| COc1cncc(-c2nnc(Nc3ccc(Oc4ccnc5cc(OC)cnc45)cc3)c3ccccc23)c1 [compound 129] | 0.181 | – |

| Structure (SMILES) | EC50 [µM] | EC50 (HeLa cells) [µM] |
| --- | --- | --- |
| COc1cnc2c(Oc3ccc(Nc4nnc(-c5ccncc5OC)c5ccccc45)cc3)ccnc2c1 [compound 130] | > 1.2 | – |
| COc1cnc2c(Oc3ccc(Nc4nnc(-c5cccc(COC(C)=O)n5)c5ccccc45)cc3)ccnc2c1 [compound 132] | 0.323 | – |
| Brc1ccc2c(Oc3ccc(Nc4nnc(-c5ccccc5)c5ccccc45)cc3)ccnc2c1 [compound 133] | 0.116 | – |
| Brc1ccc2nccc(Oc3ccc(Nc4nnc(-c5ccccc5)c5ccccc45)cc3)c2c1 [compound 134] | 0.091 | – |
| COc1cnc2c(Oc3ccc(Nc4nnc(-c5ccccc5)c5ccccc45)nc3)ccnc2c1 [compound 135] | 0.449 | – |
| COc1cnc2c(Oc3ccc(Nc4nnc(-c5ccc6c(c5)CC(C)(C)O6)c5ccccc45)cc3)ccnc2c1 [compound 136] | 0.099 | – |
| COc1cnc2c(Oc3ccc(Nc4nnc(-c5ccc(OC(C)C)cc5)c5ccccc45)cc3)ccnc2c1 [compound 137] | 0.85 | – |
| COc1cnc2c(Oc3ccc(Nc4nnc(-c5ccc(C)s5)c5ccccc45)cc3)ccnc2c1 [compound 138] | 0.03 | – |
| COc1cccc(-c2nnc(Nc3ccc(Oc4ccnc5cc(OC)cnc45)cc3)c3ccccc23)c1 [compound 139] | 0.057 | – |
| COc1cnc2c(Oc3ccc(Nc4nnc(-c5ccc(Cl)s5)c5ccccc45)cc3)ccnc2c1 [compound 140, 4-(5-chloro-2-thienyl)-N-(4-((7-(methyloxy)-1,5-naphthyridin-4-yl)oxy)phenyl)-1-phthalazinamine] | 0.022 | – |
| COc1ccc(-c2nnc(Nc3ccc(Oc4ccnc5cc(C#N)ccc45)cc3)c3ccccc23)cc1 [compound 141, 4-((4-((4-(4-(methyloxy)phenyl)-1-phthalazinyl)amino)phenyl)oxy)-7-quinolinecarbonitrile] | 0.025 | – |
| COc1cnc2c(Oc3ccc(Nc4nnc(-c5ccc6sccc6c5)c5ccccc45)cc3)ccnc2c1 [compound 142] | 0.007 | – |
| COc1cnc2c(Oc3ccc(Nc4nnc(-c5cc6ccccc6n5C)c5ccccc45)cc3)ccnc2c1 [compound 143, 4-(1-methyl-1H-indol-2-yl)-N-(4-((7-(methyloxy)-1,5-naphthyridin-4-yl)oxy)phenyl)-1-phthalazinamine] | 0.094 | – |
| COc1cnc2c(Oc3ccc(Nc4ncc(-c5ccccc5)c5ccccc45)cc3)ccnc2c1 [compound 144] | 0.155 | – |
| COc1cc2nccc(Oc3ccc(Nc4ncc(-c5ccccc5)c5ccccc45)cc3)c2cn1 [compound 145] | > 1.2 | – |
| COc1cnc2c(Oc3ccc(Nc4nnc(-c5ccc(C(F)(F)F)cc5)c5ccccc45)cc3)ccnc2c1 [compound 146, N-(4-((7-(methyloxy)-1,5-naphthyridin-4-yl)oxy)phenyl)-4-(4-(trifluoromethyl)phenyl)-1-phthalazinamine] | 0.057 | – |
| N#Cc1ccc2c(Oc3ccc(Nc4nnc(-c5ccc(C(F)(F)F)cc5)c5ccccc45)cc3)ccnc2c1 [compound 147, 4-((4-((4-(4-(trifluoromethyl)phenyl)-1-phthalazinyl)amino)phenyl)oxy)-7-quinolinecarbonitrile] | 0.02 | – |
| CCc1cc(-c2ccccc2)nnc1Nc1ccc(Oc2ncnc3cc(OC)c(OC)cc23)cc1 [compound 148] | 0.039 | – |
| CCc1cc(-c2ccccc2)nnc1Nc1ccc(Oc2ccnc3cc(C#N)ccc23)cc1 [compound 149] | 0.42 | – |

| Structure (SMILES) | EC50 [µM] | EC50 (HeLa cells) [µM] |
| --- | --- | --- |
| COc1cc2nccc(Oc3ccc(Nc4nnc(-c5cccc(C)n5)c5ccccc45)cc3)c2cc1OC [compound 150] | 0.017 | – |
| COc1cnc2c(Oc3ccc(Nc4nnc(N5CCCCC5)c5ccccc45)cc3)ccnc2c1 [compound 151] | 0.128 | – |
| COc1cnc2c(Oc3ccc(Nc4nnc(-c5cc(C)cs5)c5ccccc45)cc3)ccnc2c1 [compound 152] | 0.009 | – |
| COc1cc2ncnc(Oc3ccc(Nc4nnc(-c5cc(C)cs5)c5ccccc45)cc3)c2cc1OC [compound 153] | 0.001 | – |
| COc1cnc2c(Oc3ccc(Nc4nnc(-c5ccc(Cl)c(C#N)c5)c5ccccc45)cc3)ccnc2c1 [compound 154] | 0.061 | – |
| COc1cnc2c(Oc3ccc(Nc4nnc(-c5ccc(C(C)C)cc5)c5ccccc45)cc3)ccnc2c1 [compound 155] | 0.068 | – |
| CCCc1cc(-c2ccccc2)nnc1Nc1ccc(Oc2ccnc3cc(OC)cnc23)cc1 [compound 156] | 0.061 | – |
| COc1cnc2c(Oc3ccc(Nc4nnc(-c5ccc6c(c5)OCCN6C)c5ccccc45)cc3)ccnc2c1 [compound 157] | 0.028 | – |
| COc1cnc2c(Oc3ccc(Nc4nnc(-c5ccc(OC)nc5)c5ccccc45)cc3)ccnc2c1 [compound 158] | 0.075 | – |
| COc1cnc2c(Oc3ccc(Nc4nnc(-c5ccc6occc6c5)c5ccccc45)cc3)ccnc2c1 [compound 159] | 0.007 | – |
| Cc1ccc(-c2nnc(Nc3ccc(Oc4ccnc5ccccc45)c(F)c3)c3ccccc23)cc1 [compound 161] | 0.01 | – |
| Cc1ccc(-c2nnc(Nc3ccc(Oc4ccnc5cc(C#N)ccc45)cc3)c3ccccc23)s1 [compound 162] | 0.004 | – |
| COc1cnc2c(Oc3ccc(Nc4nnc(-c5ccc(OC(F)(F)F)cc5)c5ccccc45)cc3)ccnc2c1 [compound 163] | > 1.2 | – |
| COc1ccc2c(Oc3ccc(Nc4nnc(-c5ccccc5)c5ccccc45)cc3)c(F)cnc2c1 [compound 164] | – | 0.076 |
| COc1cnc2c(Oc3ccc(Nc4nnc(-c5ccc6c(c5)OCCO6)c5ccccc45)cc3)ccnc2c1 [compound 166] | – | 0.087 |
| COc1cnc2c(Oc3ccc(Nc4nnc(-c5ccc6[nH]ccc6c5)c5ccccc45)cc3)ccnc2c1 [compound 167] | – | 0.027 |
| COc1cnc2c(Oc3ccc(Nc4nnc(-c5ccc6c(c5)CCO6)c5ccccc45)cc3)ccnc2c1 [compound 168, 4-(2,3-dihydro-1-benzofuran-5-yl)-N-(4-((7-(methyloxy)-1,5-naphthyridin-4-yl)oxy)phenyl)-1-phthalazinamine] | – | 0.007 |
| COc1cnc2c(Oc3ccc(Nc4nnc(-c5csc6ccccc56)c5ccccc45)cc3)ccnc2c1 [compound 169] | – | 0.027 |

Reference: US20140336182A1, “Aurora Kinase Modulators and Method of Use” (Amgen Inc., priority 2013, published 2014)
